# Target: Aβ1-40 peptide monomer (Homo sapiens, UniProt P05067)
# Type: biochemical
# Settings: 50 μM test compound, 20 μM Aβ1-40 monomer, 4 μM pre-formed sonicated Aβ1-40 fibrils, pH 7.4, two hours at 37° C., HPLC
# Description: The activity of the disclosed compounds is assessed according to the procedure reported below. An Aβ1-40 peptide monomer stock solution is prepared by dissolving the peptide in dimethylsulfoxide at a concentration of 33.33 mg/mL. The stock solution is further diluted 1 to 11.5 with dimethylsulfoxide. This solution is then diluted with 10 mM phosphate buffer pH 7.4 containing 150 mM sodium chloride to prepare the test solution. To an eppendorf tube containing 47 μL of Aβ1-40 peptide monomer solution are added 3 μL of a 830 μM water solution of the test compound containing 66.4 μM, based on the Aβ1 -40 monomer content, of pre-formed sonicated Aβ1-40 fibrils: the resulting solution is 20 μM in Aβ1-40 monomer, 50 μM in the test compound and contains 4 μM, based on the Aβ1-40 monomer content, of pre-formed sonicated Aβ1-40 fibrils. The aggregation is allowed to proceed for two hours at 37° C. The suspension is then centrifuged at 15000 rpm for 15 minutes at +4° C., the supernatant is collected and the Aβ1 -40 monomer is quantitated by HPLC. The activity is expressed as the percent of inhibition of the aggregation of a 20 μM Aβ1-40 monomer solution stimulated by 4 μM, based on the Aμ1-40 monomer content, pre-formed sonicated Aμ1-40 fibrils.
# Sequence of Aβ1-40 peptide monomer (P05067 672-711 limits assumed): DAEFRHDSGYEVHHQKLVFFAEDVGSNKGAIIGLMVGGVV
row,SMILES,% inhibition (of the aggregation of Aβ1-40 monomer)
1,"CON=C1CC2c3c(O)c4c(c(O)c3CC1(C)N2Cc1ccc(OC)c(OC)c1)C(=O)c1cccc(OC)c1C4=O (stereo not drawn) [Compound 1e, 8-N-(3.4-dimethoxybenzyl)anthrazalone O-methyloxime]",26.2%
2,"CON=C1CC2c3c(O)c4c(c(O)c3CC1(C)N2Cc1ccncc1)C(=O)c1cccc(OC)c1C4=O (stereo not drawn) [Compound 1p, 8-N-(4-pyridylmethyl)anthrazalone O-methyloxime]",31.7%
3,"C=CCN1C2CC(=NOC)C1(C)Cc1c(O)c3c(c(O)c12)C(=O)c1c(OC)cccc1C3=O (stereo not drawn) [Compound 1c, 8-N-allylanthrazalone O-methyl-oxime]",36.0%
4,"COc1ccc(CN2C3CC(=NO)C2(C)Cc2c(O)c4c(c(O)c23)C(=O)c2c(OC)cccc2C4=O)cc1OC (stereo not drawn) [Compound 1a, 8-N-(3,4-dimethoxybenzyl) anthrazalone oxime]",22.9%
5,"COc1cccc2c1C(=O)c1c(O)c3c(c(O)c1C2=O)CC1(C)C(=NOCc2ccccc2)CC3N1Cc1ccncc1 (stereo not drawn) [Compound 1q, 8-N-(4-pyridylmethyl)anthrazalone O-benzyloxime]",24.2%
6,"CCON=C1CC2NC1(C)Cc1c(O)c3c(c(O)c12)C(=O)c1c(OC)cccc1C3=O (single isomer, unassigned) [lac-I, Anthrazalone O-ethyloxime]",54.2%

# Source: patent publication US6194422A, “Anthracycline derivatives” (Pharmacia & Upjohn SpA, priority 1997, dated 2001)
